Test results: patent publication US10143202B2, “Synergistic blends of antimicrobials useful for controlling microorganisms in industrial processes” (Solenis Technologies, L.P., priority 2014, dated 2018)
Converted amounts (≈) assume the structure as drawn.

What was measured:
Lactobacillus plantarum = experiment: Minimal Inhibitory Concentration (MIC), two-fold dilution series in 96 well microplate, antimicrobial used alone; assay type: cell-based; settings: pH 5, 18-24 hours, complete inhibition of growth
Experimental: This is the lowest concentration of a substance or substances which can achieve complete inhibition of growth.
In order to determine the Minimal Inhibitory Concentration, a two-fold dilution series of the antimicrobial is constructed with the dilutions being made in growth media. The dilutions are made in a 96 well microplate such that each well has a final volume of 280 μl of media and antimicrobial. […] After the dilution series is constructed the wells receive an inoculum of microbe suspended in growth media such that the final concentration of microbes in the well is ˜5×10^5 cfu/ml. In these examples the test microbe used is Lactobacillus plantarum. The cultures are incubated at an appropriate temperature for 18-24 hours, and the wells scored as positive or negative for growth based on a visual examination for turbid wells.

Weisella confusa = settings: cited from earlier work
fermentation = settings: cited from earlier work

O=C(O)CC(O)(CC(=O)O)C(=O)O [Citric Acid, citric acid]
MIC (Lactobacillus plantarum; Lactiplantibacillus plantarum, read-out: Citric Acid MIC (QC), Used Alone): 6250 µg/mL (≈ 32.5 mM) | Citric Acid MIC (QC), Used Alone (Lactobacillus plantarum): 6250 ppm

[O][Cl+][O-] [ClO2, chlorine dioxide]
ClO2 MIC (QA), Used Alone (Lactobacillus plantarum): 54 ppm

Virginiamycin
Concentration required to inhibit growth of Weisella confusa (Weisella confusa): over 25 mg/L | Concentration that will suppress fermentation (fermentation): over 2 mg/L
